In ChEMBL document CHEMBL5512619, “Anticancer mechanism of coumarin-based derivatives” (Eur J Med Chem, 2024):
One block for each compound: values may come before it.

What was measured:
[1] = biological target: T1, Vascular endothelial growth factor receptor 2 (Homo sapiens, UniProt P35968); test: Inhibition of human VEGFR2
[2] = system: HepG2; test: Induction of apoptosis in human HepG2 cells assessed as necrotic cells at 2 times IC50 incubated for 12 hrs by annexin V-FITC and PI staining based flow cytometry analysis relative to control; assay type: functional
[3] = system: HepG2; test: Induction of apoptosis in human HepG2 cells assessed as necrotic cells at 1 time IC50 incubated for 12 hrs by annexin V-FITC and PI staining based flow cytometry analysis relative to control; assay type: functional
[4] = biological target: Steryl-sulfatase (Homo sapiens, UniProt P08842); test: Inhibition of STS in human placental microsome; assay type: microsomes
[5] = system: HCT-116; test: Antiproliferative activity against human HCT-116 cells measured after 24 hrs by MTT assay; assay type: functional, cell-based; details: HCT-116, 24 h
[6] = system: A549; test: Antiproliferative activity against human A549 cells measured after 24 hrs by MTT assay; assay type: functional, cell-based; details: A549, 24 h
[7] = system: HepG2; test: Antiproliferative activity against human HepG2 cells measured after 24 hrs by MTT assay; assay type: functional, cell-based; details: HepG2, 24 h
[8] = system: HeLa; test: Antiproliferative activity against human HeLa cells incubated for 24 hrs by MTT assay; assay type: functional, cell-based
[9] = Cytotoxicity against African green monkey Vero cells incubated for 2 days by Neutral Red staining based assay; assay type: toxicity, cell-based, Chlorocebus sabaeus
[10] = system: HCT-116; test: Cytotoxicity against human HCT-116 cells incubated for 2 days by Neutral Red staining based assay; assay type: functional, cell-based; details: HCT-116, 48 h
[11] = system: HepG2; test: Induction of apoptosis in human HepG2 cells assessed as necrotic cells at 2 times IC50 incubated for 24 hrs by annexin V-FITC and PI staining based flow cytometry analysis relative to control; assay type: functional
[12] = system: HepG2; test: Cytotoxicity against human HepG2 cells incubated for 2 days by Neutral Red staining based assay; assay type: functional, cell-based; details: HepG2, 48 h
[13] = system: HepG2; test: Induction of apoptosis in human HepG2 cells assessed as necrotic cells at 1 time IC50 incubated for 24 hrs by annexin V-FITC and PI staining based flow cytometry analysis relative to control; assay type: functional
[14] = system: HepG2; test: Induction of apoptosis in human HepG2 cells at 2 times IC50 incubated for 24 hrs by annexin V-FITC and PI staining based flow cytometry analysis relative to control; assay type: functional
[15] = system: SK-LU-1; test: Cytotoxicity against human SK-LU-1 cells incubated for 2 days by Neutral Red staining based assay; assay type: functional, cell-based; details: SK-LU-1, 48 h
[16] = system: HepG2; test: Induction of apoptosis in human HepG2 cells at 1 time IC50 incubated for 24 hrs by annexin V-FITC and PI staining based flow cytometry analysis relative to control; assay type: functional
[17] = system: A549; test: Antiproliferative activity against human A549 cells incubated for 48 hrs by MTT assay; assay type: functional, cell-based; details: A549, 48 h
[18] = system: HeLa; test: Antiproliferative activity against human HeLa cells incubated for 48 hrs by MTT assay; assay type: functional, cell-based
[19] = biological target: Albumin (Homo sapiens, UniProt P02768); test: Reversible binding affinity to human serum albumin
[20] = system: MCF7; test: Cytotoxicity against human MCF-7 cells relative to control; assay type: functional
[21] = Inhibition of DNA topoisomerase II (unknown origin)
[22] = biological target: T1, Vascular endothelial growth factor receptor 2; test: Inhibition of VEGFR2 (unknown origin)
[23] = system: MCF7; test: Cytotoxicity against human MCF-7 cells; assay type: functional, cell-based
[24] = system: SK-OV-3; test: Antiproliferative activity against human SK-OV-3 cells measured after 21 hrs by MTT assay; assay type: functional, cell-based; details: SK-OV-3, 21 h
[25] = system: EL4; test: Cytotoxicity against mouse EL4 cells by MTT assay; assay type: functional, cell-based
[26] = Cytotoxicity against mouse LB3 cells by MTT assay; assay type: functional, cell-based
[27] = system: T-cell; test: Cytotoxicity against mouse T-lymphocyte cells by MTT assay; assay type: functional, cell-based
[28] = biological target: T2, Carbonic anhydrase 1 (Homo sapiens, UniProt P00915); test: Binding affinity to human CA1 assessed as inhibition constant incubated for 6 hrs by phenol red dye based stopped flow CO2 hydration assay
[29] = biological target: Carbonic anhydrase 12 (Homo sapiens, UniProt O43570); test: Binding affinity to human CA12 assessed as inhibition constant incubated for 10 mins by phenol red dye based stopped flow CO2 hydration assay
[30] = biological target: T2, Carbonic anhydrase 1; test: Binding affinity to human CA1 assessed as inhibition constant incubated for 10 mins by phenol red dye based stopped flow CO2 hydration assay
[31] = biological target: Carbonic anhydrase 2 (Homo sapiens, UniProt P00918); test: Binding affinity to human CA2 assessed as inhibition constant incubated for 10 mins by phenol red dye based stopped flow CO2 hydration assay
[32] = biological target: Carbonic anhydrase 9 (Homo sapiens, UniProt Q16790); test: Binding affinity to human CA9 assessed as inhibition constant incubated for 10 mins by phenol red dye based stopped flow CO2 hydration assay
[33] = Induction of autophagy in human MOG-G-CCM cells relative to control; assay type: functional
[34] = Induction of apoptosis in human MOG-G-CCM cells relative to control; assay type: functional
[35] = system: HepG2; test: Cytotoxicity against human HepG2 cells incubated for 72 hrs by MTT assay; assay type: functional, cell-based; details: HepG2, 72 h
[36] = biological target: Epidermal growth factor receptor (Homo sapiens, UniProt P00533); test: Inhibition of EGFR (unknown origin)
[37] = biological target: Receptor tyrosine-protein kinase erbB-2 (Homo sapiens, UniProt P04626); test: Inhibition of HER2 (unknown origin)
[38] = Cytotoxicity against human Lu1 cells incubated for 72 hrs by MTT assay; assay type: functional, cell-based; details: Lu1, 72 h
[39] = system: HeLa; test: Cytotoxicity against human HeLa cells incubated for 72 hrs by MTT assay; assay type: functional, cell-based

Sequence of Albumin (P02768 whole entry): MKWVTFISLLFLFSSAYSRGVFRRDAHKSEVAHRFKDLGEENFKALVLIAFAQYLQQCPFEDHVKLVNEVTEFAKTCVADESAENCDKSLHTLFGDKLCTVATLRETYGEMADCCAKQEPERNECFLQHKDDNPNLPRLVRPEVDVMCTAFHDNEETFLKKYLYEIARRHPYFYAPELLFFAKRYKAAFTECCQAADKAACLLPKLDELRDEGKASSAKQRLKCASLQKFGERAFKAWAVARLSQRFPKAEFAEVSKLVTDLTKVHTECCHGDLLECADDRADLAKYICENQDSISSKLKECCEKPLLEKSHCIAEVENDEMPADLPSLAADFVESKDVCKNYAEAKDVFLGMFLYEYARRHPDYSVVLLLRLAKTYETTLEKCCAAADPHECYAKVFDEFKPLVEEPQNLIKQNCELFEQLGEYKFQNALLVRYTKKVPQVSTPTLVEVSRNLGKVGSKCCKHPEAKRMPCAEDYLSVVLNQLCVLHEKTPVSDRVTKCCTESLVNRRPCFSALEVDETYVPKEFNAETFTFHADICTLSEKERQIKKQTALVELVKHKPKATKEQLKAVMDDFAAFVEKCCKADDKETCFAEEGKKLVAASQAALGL
T1 sequence (P35968 whole entry): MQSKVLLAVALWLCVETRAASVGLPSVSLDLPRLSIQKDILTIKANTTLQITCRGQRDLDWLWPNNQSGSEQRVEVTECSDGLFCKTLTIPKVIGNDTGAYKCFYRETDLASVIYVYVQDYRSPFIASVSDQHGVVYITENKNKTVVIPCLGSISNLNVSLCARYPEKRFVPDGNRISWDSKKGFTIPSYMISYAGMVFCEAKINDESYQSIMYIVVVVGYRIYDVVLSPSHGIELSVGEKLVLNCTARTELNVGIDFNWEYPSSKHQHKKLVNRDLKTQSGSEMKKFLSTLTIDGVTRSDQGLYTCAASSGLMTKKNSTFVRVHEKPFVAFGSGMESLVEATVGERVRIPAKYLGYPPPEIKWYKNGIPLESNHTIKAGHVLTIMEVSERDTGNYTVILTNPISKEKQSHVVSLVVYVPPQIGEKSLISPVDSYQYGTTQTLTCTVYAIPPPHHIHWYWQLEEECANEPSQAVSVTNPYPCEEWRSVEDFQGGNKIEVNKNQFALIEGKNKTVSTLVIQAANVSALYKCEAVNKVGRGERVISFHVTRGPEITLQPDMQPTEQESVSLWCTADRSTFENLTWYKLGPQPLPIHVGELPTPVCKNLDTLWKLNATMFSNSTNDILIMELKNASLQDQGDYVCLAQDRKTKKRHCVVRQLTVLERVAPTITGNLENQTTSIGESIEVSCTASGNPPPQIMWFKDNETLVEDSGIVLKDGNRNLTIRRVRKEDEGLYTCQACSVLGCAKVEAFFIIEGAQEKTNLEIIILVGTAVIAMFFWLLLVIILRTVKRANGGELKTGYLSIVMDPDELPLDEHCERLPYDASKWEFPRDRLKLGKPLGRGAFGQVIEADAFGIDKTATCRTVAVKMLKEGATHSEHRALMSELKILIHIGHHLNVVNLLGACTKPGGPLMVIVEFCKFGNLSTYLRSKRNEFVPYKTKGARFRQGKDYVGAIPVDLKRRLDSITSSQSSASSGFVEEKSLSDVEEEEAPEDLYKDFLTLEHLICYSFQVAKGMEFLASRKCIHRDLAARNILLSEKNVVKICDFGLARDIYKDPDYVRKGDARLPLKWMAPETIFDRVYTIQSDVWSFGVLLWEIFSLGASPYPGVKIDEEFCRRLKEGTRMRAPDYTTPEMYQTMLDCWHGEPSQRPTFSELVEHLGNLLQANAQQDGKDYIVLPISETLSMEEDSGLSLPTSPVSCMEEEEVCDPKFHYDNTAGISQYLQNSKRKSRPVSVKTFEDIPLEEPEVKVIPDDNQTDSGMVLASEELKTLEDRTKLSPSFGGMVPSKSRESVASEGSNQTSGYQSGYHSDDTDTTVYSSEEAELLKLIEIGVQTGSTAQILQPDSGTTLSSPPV
Sequence of Receptor tyrosine-protein kinase erbB-2 (P04626 whole entry): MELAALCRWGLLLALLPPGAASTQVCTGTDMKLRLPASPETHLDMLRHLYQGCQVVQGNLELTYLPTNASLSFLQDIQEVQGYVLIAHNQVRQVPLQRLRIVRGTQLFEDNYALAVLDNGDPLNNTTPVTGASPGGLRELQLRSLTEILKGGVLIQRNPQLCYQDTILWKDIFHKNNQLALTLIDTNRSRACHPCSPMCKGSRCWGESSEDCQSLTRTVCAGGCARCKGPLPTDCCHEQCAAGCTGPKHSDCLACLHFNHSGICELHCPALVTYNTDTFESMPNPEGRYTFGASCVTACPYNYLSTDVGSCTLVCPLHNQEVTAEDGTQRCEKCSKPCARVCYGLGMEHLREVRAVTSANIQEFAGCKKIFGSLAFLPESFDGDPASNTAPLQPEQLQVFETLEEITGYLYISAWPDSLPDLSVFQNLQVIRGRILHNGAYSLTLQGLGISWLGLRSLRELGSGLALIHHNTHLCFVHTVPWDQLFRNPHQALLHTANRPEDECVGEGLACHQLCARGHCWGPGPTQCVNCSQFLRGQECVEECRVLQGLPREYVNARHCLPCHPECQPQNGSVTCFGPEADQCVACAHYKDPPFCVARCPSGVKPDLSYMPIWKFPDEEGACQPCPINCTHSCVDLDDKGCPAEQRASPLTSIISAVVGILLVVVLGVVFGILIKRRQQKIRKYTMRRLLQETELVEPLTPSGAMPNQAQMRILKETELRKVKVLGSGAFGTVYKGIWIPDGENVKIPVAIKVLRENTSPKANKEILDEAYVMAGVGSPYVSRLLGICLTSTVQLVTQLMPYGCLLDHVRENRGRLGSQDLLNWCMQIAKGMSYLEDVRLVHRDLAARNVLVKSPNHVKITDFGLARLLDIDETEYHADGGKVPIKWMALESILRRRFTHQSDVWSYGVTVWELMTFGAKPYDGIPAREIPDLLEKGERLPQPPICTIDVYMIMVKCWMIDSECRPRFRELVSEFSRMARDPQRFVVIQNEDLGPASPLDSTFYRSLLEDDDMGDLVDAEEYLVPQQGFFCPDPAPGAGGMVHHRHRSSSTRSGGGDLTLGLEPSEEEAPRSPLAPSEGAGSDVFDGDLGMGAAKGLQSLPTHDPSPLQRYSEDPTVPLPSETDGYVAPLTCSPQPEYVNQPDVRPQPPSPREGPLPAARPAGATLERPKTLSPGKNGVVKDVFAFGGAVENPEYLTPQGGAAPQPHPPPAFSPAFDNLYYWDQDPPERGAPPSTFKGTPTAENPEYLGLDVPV
T2 sequence (P00915 whole entry): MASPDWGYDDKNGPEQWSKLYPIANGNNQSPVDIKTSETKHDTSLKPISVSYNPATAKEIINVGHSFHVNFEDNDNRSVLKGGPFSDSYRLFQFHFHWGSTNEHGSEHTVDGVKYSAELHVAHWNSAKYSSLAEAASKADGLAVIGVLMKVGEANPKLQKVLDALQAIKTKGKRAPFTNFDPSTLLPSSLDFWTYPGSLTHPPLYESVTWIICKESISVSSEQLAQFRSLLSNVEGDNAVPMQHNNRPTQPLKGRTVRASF
Sequence of Steryl-sulfatase (P08842 whole entry): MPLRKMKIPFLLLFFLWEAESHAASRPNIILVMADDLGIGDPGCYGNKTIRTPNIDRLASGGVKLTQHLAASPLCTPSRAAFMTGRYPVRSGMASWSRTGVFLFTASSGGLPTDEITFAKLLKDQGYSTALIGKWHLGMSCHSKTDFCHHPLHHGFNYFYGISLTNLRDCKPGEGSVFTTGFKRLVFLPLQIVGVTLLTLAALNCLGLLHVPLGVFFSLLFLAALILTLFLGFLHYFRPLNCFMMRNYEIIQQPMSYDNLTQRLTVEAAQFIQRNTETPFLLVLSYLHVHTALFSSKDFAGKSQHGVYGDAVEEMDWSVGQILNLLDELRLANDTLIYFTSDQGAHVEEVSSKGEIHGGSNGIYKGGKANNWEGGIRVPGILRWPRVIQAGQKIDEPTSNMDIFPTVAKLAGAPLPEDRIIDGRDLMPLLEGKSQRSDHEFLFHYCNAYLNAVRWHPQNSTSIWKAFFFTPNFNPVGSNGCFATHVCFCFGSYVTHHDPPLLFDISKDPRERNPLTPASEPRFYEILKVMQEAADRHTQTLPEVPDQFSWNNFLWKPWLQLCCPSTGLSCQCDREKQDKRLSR
Sequence of Carbonic anhydrase 12 (O43570 whole entry): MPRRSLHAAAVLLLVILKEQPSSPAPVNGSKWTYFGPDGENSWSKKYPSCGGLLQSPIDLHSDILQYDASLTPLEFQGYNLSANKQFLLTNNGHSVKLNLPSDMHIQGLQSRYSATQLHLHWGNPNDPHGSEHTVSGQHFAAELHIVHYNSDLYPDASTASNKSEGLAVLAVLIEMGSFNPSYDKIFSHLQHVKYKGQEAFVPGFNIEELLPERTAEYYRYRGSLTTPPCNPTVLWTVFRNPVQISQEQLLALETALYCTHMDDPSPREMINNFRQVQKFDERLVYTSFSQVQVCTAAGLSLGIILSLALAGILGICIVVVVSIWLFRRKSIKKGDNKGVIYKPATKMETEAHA

Compound: COc1c2c(cc3oc(=O)ccc13)OC(C)(C)C=C2 [XANTHOXYLETIN]
Activity [2]: 2.9% | Activity [3]: 2.5%

Compound: CCCCCCc1c(C)c2ccc(OS(N)(=O)=O)cc2oc1=O
IC50 [4]: 8 nM

Compound: C=CC(C)(C)c1cc2c(O)c3c(c(C(C)(C)C=C)c2oc1=O)OC(C)(C)C=C3 [CLAUSARIN]
IC50 at 2 days [9]: 78200 nM | IC50 [10]: 44600 nM | Activity [11]: 2.7% | IC50 [12]: 7600 nM | Activity [2]: 27.4% | Activity [13]: 1.6% | Activity [14]: 64.2% | IC50 [15]: 6900 nM | Activity [16]: 49.7% | Activity [3]: 6.8%

Compound: Cc1c(Cc2ccccc2)c(=O)oc2cc(OS(N)(=O)=O)ccc12
IC50 [4]: 32 nM

Compound: CC(C)(O[C@@H]1O[C@H](CO)[C@@H](O)[C@H](O)[C@H]1O)[C@H]1Cc2cc3ccc(=O)oc3cc2O1 [NODAKENIN]
IC50 [24]: > 100000 nM

Compound: O=C(CCCCCNC(=O)c1cc(C(=O)NCCCCCC(=O)Nc2ccc(-c3c(-c4ccc(OCCN5CCCCC5)cc4)c4ccc(OCCN5CCCCC5)cc4oc3=O)cc2)cc(C(=O)NCCCCCC(=O)Nc2ccc(-c3c(-c4ccc(OCCN5CCCCC5)cc4)c4ccc(OCCN5CCCCC5)cc4oc3=O)cc2)c1)Nc1ccc(-c2c(-c3ccc(OCCN4CCCCC4)cc3)c3ccc(OCCN4CCCCC4)cc3oc2=O)cc1
IC50 [25]: 10000 nM | IC50 [26]: 10000 nM | IC50 [27]: 10000 nM

Compound: CNC(=O)c1cc(Oc2ccc(NC(=O)Nc3ccc(Cl)c(C(F)(F)F)c3)cc2)ccn1 [SORAFENIB]
Activity [33]: 1% | Activity [34]: 25%

Compound: O=c1ccc2ccc(O[C@@H]3O[C@H](CO[C@@H]4OC[C@](O)(CO)[C@H]4O)[C@@H](O)[C@H](O)[C@H]3O)cc2o1
IC50 [24]: > 100000 nM

Compound: CC(=O)OC[C@H]1O[C@@H](N(C(C)=O)C2=NN(C(C)=O)C(c3cc(=O)oc4cc(OCC(C)C)ccc34)S2)[C@H](OC(C)=O)[C@@H](OC(C)=O)[C@@H]1OC(C)=O (stereo partly specified)
IC50 [35]: 1180 nM | IC50 [36]: 220 nM | IC50 [37]: 130 nM | IC50 [38]: 1180 nM | IC50 [39]: 1180 nM

Compound: O=c1ccc2ccc(O[C@@H]3O[C@H](CO)[C@@H](O)[C@H](O)[C@H]3O)cc2o1 [SKIMMIN]
IC50 [24]: > 100000 nM

Continued, in another order:

IC50 [1]: 34 nM
Compound: CC1SC(N2N=C(c3cc4ccccc4oc3=O)CC2c2ccc(N(C)C)cc2)=NC1=O (stereo unspecified)

IC50 [5]: 1100 nM | IC50 [6]: 1100 nM | IC50 [7]: 1100 nM
Compound: COc1ccc(-c2cc(-c3cc4ccccc4oc3=O)nc(NC(C)=O)c2C#N)cc1

IC50 [8]: 3250 nM
Compound: CC(C)=CC[C@@H](OCCc1ccc(C(=O)/N=C/c2c(Cl)c3ccccc3oc2=O)cc1)C1=CC(=O)c2c(O)ccc(O)c2C1=O

IC50 [17]: 2470 nM | IC50 [18]: 2470 nM
Compound: Cc1ccc2oc(=O)cc(COc3c(C)occc3=O)c2c1

Kd [19]: 30 nM
Compound: Cc1cc(=O)oc2cc(NCc3cc([N+](=O)[O-])ccc3O)ccc12

IC50 [21]: 4100 nM | IC50 [22]: 23600 nM
Compound: COC(=O)C(CCSC)NC(=O)CCNC(=O)c1cc2ccccc2oc1=O (stereo unspecified)
Activity [20]: 97.35% | IC50 [23]: 5850 nM

Kd [19]: 30 nM
Compound: Cc1cc(=O)oc2cc(NCc3cc(Br)cc(Br)c3O)ccc12

Ki [28]: > 10000 nM
Compound: Cc1cc(=O)oc2cc(OCc3cn(CCCCCCCCCCCCOc4ccc5ccc(=O)oc5c4)nn3)ccc12

Ki [29]: 30.6 nM | Ki [30]: 99.4 nM | Ki [31]: 99.4 nM | Ki [32]: 30.6 nM
Compound: Cc1ccc(C(=O)Nc2ccc3c(c2)C=CS(=O)(=O)O3)cc1S(=O)(=O)N1C[C@@H](C)O[C@@H](C)C1

IC50 [36]: 220 nM | IC50 [37]: 130 nM
Compound: CCOc1ccc2oc(=O)cc(C3SC(N(C(C)=O)[C@@H]4O[C@H](COC(C)=O)[C@H](OC(C)=O)[C@H](OC(C)=O)[C@H]4OC(C)=O)=NN3C(C)=O)c2c1 (stereo partly specified)
IC50 [35]: 1180 nM | IC50 [38]: 1180 nM | IC50 [39]: 1180 nM

Kd [19]: 30 nM
Compound: Cc1cc(=O)oc2cc(NCc3ccccc3O)ccc12
